Data taken from patent publication EP0183129A1, “Quinolonecarboxylic acid derivatives” (KYORIN PHARMACEUTICAL CO., LTD., priority 1984, dated 1986).
Converted amounts (≈) assume the structure as drawn. Counter-ions that a name gives are not always drawn. Like-named read-outs stand apart in the source and are kept apart here.

Legend:
[1] = tested on: Streptococcus pyogenes S-8; assay: In vitro antibacterial activity, MIC (standard strain); assay type: cell-based; conditions: S8; Streptococcus pyogenes S-8; 10^6 cells/ml; standard strain; read-out: MIC
P. aeruginosa IFO 12689 = assay: as above; assay type: cell-based, Pseudomonas aeruginosa; conditions: Pseudomonas aeruginosa, IFO12689; P. aeruginosa IFO 12689; 10^6 cells/ml; standard strain; read-out: MIC
S. agalactiae 4368 = assay: In vitro antibacterial activity, MIC (clinical isolates); assay type: cell-based; conditions: Streptococcus agalactiae; S. agalactiae 4368; 10^6 cells/ml; clinical isolate; read-out: MIC
P. aeruginosa IID 1210 = assay: In vitro antibacterial activity, MIC (standard strain); assay type: cell-based; conditions: Pseudomonas aeruginosa, IID1210; P. aeruginosa IID 1210; 10^6 cells/ml; standard strain; read-out: MIC
Shigella sonnei IID 969 = assay: as above; assay type: cell-based; conditions: IID969, 10^6 cells/ml
Experimental: Experiment-1 In vitro antibacterial activity
The in vitro antibacterial activity against gram-positive and gram-negative bacteria has been investivated.
The minimum inhibitory concentration (MIC) was determined in accordance with the method recommended by Japan Society of Chemotherapy.

S. pneumoniae 15 = assay: In vitro antibacterial activity, MIC (clinical isolates); assay type: cell-based; conditions: Streptococcus pneumoniae; S. pneumoniae 15; 10^6 cells/ml; clinical isolate; read-out: MIC
[2] = tested on: Fusobacterium varium KYA 8501; assay: In vitro antibacterial activity, MIC (standard strain); assay type: cell-based; conditions: Fusobacterium varium, KYA8501, Fusobacterium varium KYA 8501; 10^6 cells/ml; standard strain; read-out: MIC
[3] = tested on: Bacillus subtilis PCI 219; assay: as above; assay type: cell-based; conditions: PCI219; Bacillus subtilis PCI 219; 10^6 cells/ml; standard strain; read-out: MIC
C. ramosum = assay: as above; assay type: cell-based; conditions: Thomasclavelia ramosa; C. ramosum; 10^6 cells/ml; standard strain; read-out: MIC
S. pneumoniae IID 552 = assay: as above; assay type: cell-based; conditions: Streptococcus pneumoniae, IID552; S. pneumoniae IID 552; 10^6 cells/ml; standard strain; read-out: MIC
S. epidermidis IID 866 = assay: as above; assay type: cell-based; conditions: Staphylococcus epidermidis, IID866, S. epidermidis IID 866; 10^6 cells/ml; standard strain; read-out: MIC
S. marcescens GN 7577 = assay: as above; assay type: cell-based; conditions: Serratia marcescens, GN7577; S. marcescens GN 7577; 10^6 cells/ml; standard strain; read-out: MIC
S. pyogenes 4372 = assay: In vitro antibacterial activity, MIC (clinical isolates); assay type: cell-based; conditions: Streptococcus pyogenes; S. pyogenes 4372; 10^6 cells/ml; clinical isolate; read-out: MIC
[4] = tested on: Proteus vulgaris IFO 3167; assay: In vitro antibacterial activity, MIC (standard strain); assay type: cell-based; conditions: IFO3167; Proteus vulgaris IFO 3167; 10^6 cells/ml; standard strain; read-out: MIC
S. pyogenes 3102 = assay: In vitro antibacterial activity, MIC (clinical isolates); assay type: cell-based; conditions: Streptococcus pyogenes; S. pyogenes 3102; 10^6 cells/ml; clinical isolate; read-out: MIC
B. fragilis 25285 = assay: In vitro antibacterial activity, MIC (standard strain); assay type: cell-based, Bacteroides fragilis; conditions: Bacteroides fragilis, 25285, B. fragilis 25285; 10^6 cells/ml; standard strain; read-out: MIC
[5] = tested on: Staphylococcus aureus 209 P; assay: as above; assay type: cell-based; conditions: Staphylococcus aureus 209 P; 10^6 cells/ml; standard strain; read-out: MIC
S. pyogenes IID 692 = assay: as above; assay type: cell-based; conditions: Streptococcus pyogenes, IID692; S. pyogenes IID 692; 10^6 cells/ml; standard strain; read-out: MIC
[6] = tested on: Clostridium perfringens KYA 13123; assay: microbe, parasite or virus in culture; assay type: cell-based; conditions: KYA13123
[7] = tested on: Pseudomonas aeruginosa V-1; assay: In vitro antibacterial activity, MIC (standard strain); assay type: cell-based; conditions: V1
E. coli ML 4707 = assay: as above; assay type: cell-based; conditions: Escherichia coli, ML4707; E. coli ML 4707; 10^6 cells/ml; standard strain; read-out: MIC
E. coli ATCC 10536 = assay: as above; assay type: cell-based; conditions: Escherichia coli, ATCC10536; E. coli ATCC 10536; 10^6 cells/ml; standard strain; read-out: MIC
P. mirabilis IID 994 = assay: as above; assay type: cell-based; conditions: Proteus mirabilis, IID994; P. mirabilis IID 994; 10^6 cells/ml; standard strain; read-out: MIC
[8] = tested on: Klebsiella pneumoniae KY(GN)6445; assay: as above; assay type: cell-based; conditions: Klebsiella pneumoniae KY(GN)6445; 10^6 cells/ml; standard strain; read-out: MIC
S. agalactiae 4049 = assay: In vitro antibacterial activity, MIC (clinical isolates); assay type: cell-based; conditions: Streptococcus agalactiae; S. agalactiae 4049; 10^6 cells/ml; clinical isolate; read-out: MIC
[9] = tested on: S. aureus IID 670 (Terajima); assay: In vitro antibacterial activity, MIC (standard strain); assay type: cell-based, Staphylococcus aureus; conditions: Staphylococcus aureus, IID670, S. aureus IID 670 (Terajima); 10^6 cells/ml; standard strain; read-out: MIC
[10] = tested on: Alcaligenes faecalis 0104002; assay: as above; assay type: cell-based
[11] = tested on: Yersinia enterocolitica IID 981; assay: as above; assay type: cell-based; conditions: IID981; Yersinia enterocolitica IID 981; 10^6 cells/ml; standard strain; read-out: MIC
S. agalactiae 4468 = assay: In vitro antibacterial activity, MIC (clinical isolates); assay type: cell-based; conditions: Streptococcus agalactiae; S. agalactiae 4468; 10^6 cells/ml; clinical isolate; read-out: MIC
S. pneumoniae 2950 = assay: as above; assay type: cell-based; conditions: Streptococcus pneumoniae; S. pneumoniae 2950; 10^6 cells/ml; clinical isolate; read-out: MIC
[12] = Pseudomonas aeruginosa V-1, 10^6 cells/ml, standard strain, read-out: MIC
[13] = Alcaligenes faecalis, 0104002, Alcaligenes faecalis 0104002, 10^6 cells/ml, standard strain, read-out: MIC

Structure (SMILES) | MIC [1] [µg/mL] | MIC (P. aeruginosa IFO 12689) [µg/mL] | MIC (S. agalactiae 4368) [µg/mL] | MIC (P. aeruginosa IID 1210) [µg/mL] | MIC (Shigella sonnei IID 969) [µg/mL] | MIC (S. pneumoniae 15) [µg/mL] | MIC [2] [µg/mL] | MIC [3] [µg/mL] | MIC (C. ramosum) [µg/mL] | MIC (S. pneumoniae IID 552) [µg/mL] | MIC (S. epidermidis IID 866) [µg/mL] | MIC (S. marcescens GN 7577) [µg/mL] | MIC (S. pyogenes 4372) [µg/mL] | MIC [4] [µg/mL] | MIC (S. pyogenes 3102) [µg/mL] | MIC (B. fragilis 25285) [µg/mL] | MIC [5] [µg/mL] | MIC (S. pyogenes IID 692) [µg/mL] | MIC [6] [µg/mL] | MIC (E. coli ML 4707) [µg/mL] | also measured
CNCC1CCN(c2cc3c(cc2F)c(=O)c(C(=O)O)cn3C2CC2)C1 (stereo not drawn) [Example 9, 1-Cyclopropyl-6-fluoro-1,4-dihydro-7-(3-methylaminomethyl-l-pyrrolidinyl)-4-oxo-3-quinolinecarboxylic acid hydrochloride] | 0.2 | 3.13 | 0.2 | 3.13 | 0.1 | 0.39 | 25 | 0.05 | 12.5 | 0.39 | 0.1 | 6.25 | 0.2 | 0.1 | 0.1 | 25 | 0.2 | 0.2 | 1.56 | 0.1 | MIC ([7]; Pseudomonas aeruginosa): 1.56 µg/mL; MIC (E. coli ATCC 10536): 0.1 µg/mL; MIC (P. mirabilis IID 994): 0.39 µg/mL; MIC [8]: 0.1 µg/mL; MIC (S. agalactiae 4049): 0.78 µg/mL; MIC [9]: 0.2 µg/mL; MIC ([10]; Alcaligenes faecalis, 0104002): 1.56 µg/mL; MIC [11]: 0.39 µg/mL; MIC (S. agalactiae 4468): 0.39 µg/mL; MIC (S. pneumoniae 2950): 0.78 µg/mL
CNCC1CCN(c2c(F)cc3c(=O)c(C(=O)O)cn(C4CC4)c3c2Br)C1 (stereo not drawn) [Example 16, 8-Bromo-1-cyclopropyl-6-fluoro-1,4-dihydro-7-(3-methylaminomethyl-l-pyrrolidinyl)-4-oxo-3-quinolinecarboxylic acid] | 0.05 (≈ 0.114 µM) | 1.56 (≈ 3.56 µM) | 0.05 (≈ 0.114 µM) | 1.56 (≈ 3.56 µM) | 0.025 (≈ 0.057 µM) | 0.05 (≈ 0.114 µM) | 0.39 (≈ 0.89 µM) | 0.0125 (≈ 0.0285 µM) | 0.39 (≈ 0.89 µM) | 0.05 (≈ 0.114 µM) | 0.025 (≈ 0.057 µM) | 0.78 (≈ 1.78 µM) | 0.05 (≈ 0.114 µM) | 0.025 (≈ 0.057 µM) | 0.05 (≈ 0.114 µM) | 0.1 (≈ 0.228 µM) | 0.0125 (≈ 0.0285 µM) | 0.1 (≈ 0.228 µM) | 0.1 (≈ 0.228 µM) | 0.025 (≈ 0.057 µM) | MIC [7, 12]: 0.2 µg/mL (≈ 0.456 µM); MIC (E. coli ATCC 10536): 0.025 µg/mL (≈ 0.057 µM); MIC (P. mirabilis IID 994): 0.025 µg/mL (≈ 0.057 µM); MIC [8]: 0.05 µg/mL (≈ 0.114 µM); MIC (S. agalactiae 4049): 0.05 µg/mL (≈ 0.114 µM); MIC [9]: 0.025 µg/mL (≈ 0.057 µM); MIC [10, 13]: 0.39 µg/mL (≈ 0.89 µM); MIC [11]: 0.1 µg/mL (≈ 0.228 µM); MIC (S. agalactiae 4468): 0.05 µg/mL (≈ 0.114 µM); MIC (S. pneumoniae 2950): 0.05 µg/mL (≈ 0.114 µM)
CCNCC1CCN(c2c(F)cc3c(=O)c(C(=O)O)cn(CC)c3c2F)C1 (stereo not drawn) [Ref.1, 1-Ethyl-7-(3-ethylaminomethyl-1-pyrrolidinyl)-6,8-difluoro-1,4-dihydro-4-oxo-3-quinolinecarboxylic acid, reference compound] | 0.2 (≈ 0.527 µM) | 6.25 (≈ 16.5 µM) | 0.2 (≈ 0.527 µM) | 12.5 (≈ 32.9 µM) | 0.1 (≈ 0.264 µM) | 0.2 (≈ 0.527 µM) | 6.25 (≈ 16.5 µM) | 0.05 (≈ 0.132 µM) | 6.25 (≈ 16.5 µM) | 0.2 (≈ 0.527 µM) | 0.1 (≈ 0.264 µM) | 6.25 (≈ 16.5 µM) | 0.2 (≈ 0.527 µM) | 0.05 (≈ 0.132 µM) | 0.2 (≈ 0.527 µM) | 6.25 (≈ 16.5 µM) | 0.05 (≈ 0.132 µM) | 0.39 (≈ 1.03 µM) | 1.56 (≈ 4.11 µM) | 0.1 (≈ 0.264 µM) | MIC [7, 12]: 6.25 µg/mL (≈ 16.5 µM); MIC (E. coli ATCC 10536): 0.1 µg/mL (≈ 0.264 µM); MIC (P. mirabilis IID 994): 0.2 µg/mL (≈ 0.527 µM); MIC [8]: 0.2 µg/mL (≈ 0.527 µM); MIC (S. agalactiae 4049): 0.39 µg/mL (≈ 1.03 µM); MIC [9]: 0.1 µg/mL (≈ 0.264 µM); MIC [10, 13]: 12.5 µg/mL (≈ 32.9 µM); MIC [11]: 0.39 µg/mL (≈ 1.03 µM); MIC (S. agalactiae 4468): 0.39 µg/mL (≈ 1.03 µM); MIC (S. pneumoniae 2950): 0.39 µg/mL (≈ 1.03 µM)
CCNCC1CCN(c2c(F)cc3c(=O)c(C(=O)O)cn(C4CC4)c3c2F)C1 (stereo not drawn) [Example 2, l-Cyclopropyl-7-(3-ethylaminomethyl-l-pyrrolidinyl)-6,8-difluoro-l,4-dihydro-4-oxo-3-quinolinecarboxylic acid hydrochloride] | 0.1 | 1.56 | 0.1 | 3.13 | 0.025 | 0.05 | 1.56 | 0.0125 | 0.78 | 0.1 | 0.05 | 1.56 | 0.1 | 0.025 | 0.05 | 0.78 | 0.025 | 0.2 | 0.39 | 0.025 | MIC [7, 12]: 0.78 µg/mL; MIC (E. coli ATCC 10536): 0.025 µg/mL; MIC (P. mirabilis IID 994): 0.05 µg/mL; MIC [8]: 0.05 µg/mL; MIC (S. agalactiae 4049): 0.1 µg/mL; MIC [9]: 0.025 µg/mL; MIC [10, 13]: 0.1 µg/mL; MIC [11]: 0.1 µg/mL; MIC (S. agalactiae 4468): 0.1 µg/mL; MIC (S. pneumoniae 2950): 0.1 µg/mL
CCCNCC1CCN(c2c(F)cc3c(=O)c(C(=O)O)cn(C4CC4)c3c2F)C1 (stereo not drawn) [Example 10, 1-Cyclopropyl-6,8-difluoro-1,4-dihydro-4-oxo-7-(3-n-propylaminomethyl-l-pyrrolidinyl)-3-quinolinecarboxylic acid hydrochloride] | 0.39 | 3.13 | 0.39 | 3.13 | 0.025 | 0.39 | 6.25 | 0.0125 | 1.56 | 0.39 | 0.1 | 3.13 | 0.39 | 0.025 | 0.2 | 0.78 | 0.05 | 0.39 | 0.39 | 0.2 | MIC [7, 12]: 1.56 µg/mL; MIC (E. coli ATCC 10536): 0.1 µg/mL; MIC (P. mirabilis IID 994): 0.025 µg/mL; MIC [8]: 0.05 µg/mL; MIC (S. agalactiae 4049): 0.78 µg/mL; MIC [9]: 0.05 µg/mL; MIC [10, 13]: 0.78 µg/mL; MIC [11]: 0.1 µg/mL; MIC (S. agalactiae 4468): 0.39 µg/mL; MIC (S. pneumoniae 2950): 0.39 µg/mL
